Measurements taken from PubChem BioAssay (NCI).
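Cells were grown in 96-well plates and exposed to each compound for 48 hours at five concentrations; endpoints were interpolated linearly between bracketing concentrations, or set to the highest concentration if not reached. TGI: concentration producing complete growth inhibition.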

Key:
Test in all cases: NCI tumour cell line growth inhibition, 48 h
DLD-1 colon = test system: DLD-1 colon
LXFL 529 NSCLC = test system: LXFL 529 NSCLC
M19-MEL melanoma = test system: M19-MEL melanoma
DMS 273 small cell lung = test system: DMS 273 small cell lung
HOP-18 NSCLC = test system: HOP-18 NSCLC
DMS 114 small cell lung = test system: DMS 114 small cell lung
XF 498 CNS = test system: XF 498 CNS
RXF-631 renal = test system: RXF-631 renal
SN12K1 renal = test system: SN12K1 renal
P388 leukemia = test system: P388 leukemia

SMILES	TGI (DLD-1 colon)	TGI (LXFL 529 NSCLC)	TGI (M19-MEL melanoma)	TGI (DMS 273 small cell lung)	TGI (HOP-18 NSCLC)	TGI (DMS 114 small cell lung)	TGI (XF 498 CNS)	TGI (RXF-631 renal)	TGI (SN12K1 renal)	TGI (P388 leukemia)
C=C1C(=O)C23C(O)CC4C5(C)CCCC4(C(O)OC5)C2C(OC(C)=O)CC1C3O (configuration not stated)	20.6 µM	12.2 µM	30.7 µM	41.3 µM	30.4 µM	22.2 µM				
c1ccc2c(c1)CCCC/C2=N/OCC1CO1 (configuration not stated)	> 100 µM	> 100 µM		> 100 µM	> 100 µM	> 100 µM	77.3 µM			
O=C1c2cccc(O)c2C(=O)c2c(O)cc(CO)cc21	> 100 µM	> 100 µM		> 100 µM	> 100 µM	> 100 µM	> 100 µM	> 100 µM		
O=C(NN1C(=O)CSC1c1cccc(F)c1)c1ccncc1 (configuration not stated)		> 100 µM		> 100 µM		> 100 µM	> 100 µM	> 100 µM		
CSc1nc2c(ncn2C2OC(CO)C(O)C(O)C2O)c(=O)[nH]1 (configuration not stated)	> 100 µM		> 100 µM	> 100 µM	> 100 µM	> 100 µM	> 100 µM		> 100 µM	> 100 µM
O=C(O)/C=C\C(=O)Nc1ccc(S(=O)(=O)c2ccc(NC(=O)/C=C\C(=O)O)cc2)cc1	> 100 µM	> 100 µM	> 100 µM			> 100 µM	> 100 µM			
